Experimental data as given in patent publication US20120251551A1, “Substituted (Heteroarylmethyl)thiohydantoins” (BAYER PHARMA AKTIENGESELLSCHAFT, priority 2009, published 2012).
Changes are numbered by the printed parent chain.

Assays:
[1] = target: T1, wild-type human androgen receptor (Homo sapiens, UniProt P10275); assay: Cell-based transactivation assay for wild-type human androgen receptor (PC-3 cells, MMTV-luciferase reporter)
T1 construct: expressed in transfected cells
T1 sequence (P10275 1-920): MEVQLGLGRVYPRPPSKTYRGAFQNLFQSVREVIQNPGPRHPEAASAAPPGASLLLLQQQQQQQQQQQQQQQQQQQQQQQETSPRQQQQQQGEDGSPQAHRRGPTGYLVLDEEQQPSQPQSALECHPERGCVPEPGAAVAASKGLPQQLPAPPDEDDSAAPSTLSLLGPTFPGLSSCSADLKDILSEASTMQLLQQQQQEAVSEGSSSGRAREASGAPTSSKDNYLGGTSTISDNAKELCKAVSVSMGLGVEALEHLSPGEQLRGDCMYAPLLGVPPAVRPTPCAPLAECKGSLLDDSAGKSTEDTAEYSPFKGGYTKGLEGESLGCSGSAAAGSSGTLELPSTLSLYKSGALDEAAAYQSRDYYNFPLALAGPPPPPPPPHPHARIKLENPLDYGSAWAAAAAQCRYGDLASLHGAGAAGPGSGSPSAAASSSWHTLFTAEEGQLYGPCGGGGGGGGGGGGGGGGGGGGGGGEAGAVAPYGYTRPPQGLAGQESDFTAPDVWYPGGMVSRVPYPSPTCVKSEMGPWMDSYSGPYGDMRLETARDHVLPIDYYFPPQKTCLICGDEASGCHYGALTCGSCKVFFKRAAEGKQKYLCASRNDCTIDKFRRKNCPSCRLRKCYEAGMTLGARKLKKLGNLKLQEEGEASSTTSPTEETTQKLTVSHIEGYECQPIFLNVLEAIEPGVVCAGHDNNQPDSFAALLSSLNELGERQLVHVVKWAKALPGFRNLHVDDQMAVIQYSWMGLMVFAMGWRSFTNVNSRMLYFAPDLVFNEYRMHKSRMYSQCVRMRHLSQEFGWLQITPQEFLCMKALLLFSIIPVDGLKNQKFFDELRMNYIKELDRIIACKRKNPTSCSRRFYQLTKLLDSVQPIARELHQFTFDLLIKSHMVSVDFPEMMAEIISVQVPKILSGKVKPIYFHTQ

[2] = target: T2, human androgen receptor W741L mutant (Homo sapiens, UniProt P10275, W742L); assay: Cell-based transactivation assay for human androgen receptor mutant W741L
T2 construct: expressed in transfected cells; host or cells: PC-3 cells, transient transfection with a pSG5-derived plasmid
T2 sequence (P10275 1-920 W742L): T1 sequence (P10275 1-920) with W742L
Protocol: Cell-Based Transactivation Assay for Human Androgen Receptor Mutant W741L or W741C
PC-3 cells (Kaighn et al., Invest. Urol. 17:16-23, 1979) were grown in 5% charcoal-stripped medium and seeded at a concentration of 10000 cells per well in a 96-well plate. They were transiently transfected with a pSG5-derived plasmid (#216201 from Stratagene, La Jolla, Calif., USA) coding for the human androgen receptor W741L or W741C mutant Mara et al., Cancer Research, 63: 149-153, 2003) and an MMTV-Luciferase reporter plasmid based on pGL4.14 14 (#E6691, Promega Corporation, Madison, Wis., USA). The compound to be tested was added at a concentration range varying from 1×10^−9 to 1×10 M together with 1×10^−10 R1881. After 24 h incubation at 37° C. in a 5% CO2 atmosphere, 100 μl of Steady Glo Lysis and Detection reagent (Steady Glo Luciferase assay system E2550 from Promega Corporation. Madison, Wis., USA) were added. Antagonistic activity was determined by measuring Luciferase activity in a Victor 3 Luminometer (PerkinElmer, Waltham, Mass., USA) using the Steady Glo Luciferase Assay (E2550, Promega). IC50 values were calculated for anti-androgenic activity.

[3] = test system: VCaP cells; assay: Proliferation assay with VCaP cells; type: cell-based; conditions: Homo sapiens, 168 h, R1881 (1×10^−10) stimulated growth, day 7, read-out: Antiproliferative activity VCaP IC50
Protocol: Proliferation Assay with VCaP Cells
VCaP cells ((Korenchuk et al., In Vivo 15: 163-168, 2001)) were seeded at 16 000 cells/well in 96-well plates in DMEM (F0445, Biochrom AG, Berlin, Germany) with phenol red supplemented with 10% charcoal-stripped serum. After 1 day, the cells were treated with R1881 (1×10^−10) and compound (day 0). Cell number was determined by Alamar Blue (DAL1100, Invitrogen, Life Technologies, Lohne, Germany) staining (2.5 h) at day 0 and day 7. Fluorescence was determined in Victor3 (Excitation 530 nm; emission 590 nm). Stimulated growth was defined as the signal measured at day 7 for cells treated only with R1881. Basal level was defined as the signal measured at day 7 for cells grown without R1881.

## COCCOc1ccc(CN2C(=S)N(c3ccc(C#N)c(C(F)(F)F)c3)C(=O)C2(C)C)cn1 [Example 11, 4-(3-{[6-(2-Methoxyethoxy)pyridin-3-yl]methyl}-4,4-dimethyl-5-oxo-2-thioxoimidazolidin-1-yl)-2-(trifluoromethyl)benzonitrile]
[1]
  EC50: > 10 µM

## CN1CCCN(c2ccc(CN3C(=S)N(c4ccc(C#N)c(C(F)(F)F)c4)C(=O)C3(C)C)cn2)CC1 [Example 12, 4-(4,4-Dimethyl-3-{[6-(4-methyl-1,4-diazepan-1-yl)pyridin-3-yl]methyl}-5-oxo-2-thioxoimidazolidin-1-yl)-2-(trifluoromethyl)benzonitrile]
[1]
  EC50: > 10 µM

## CC1(C)C(=O)N(c2ccc(C#N)c(C(F)(F)F)c2)C(=S)N1Cc1ccc(N2CCC(CO)CC2)nc1 [Example 14, 4-[3-({6-[4-(Hydroxymethyl)piperidin-1-yl]pyridin-3-yl}methyl)-4,4-dimethyl-5-oxo-2-thioxoimidazolidin-1-yl]-2-(trifluoromethyl)benzonitrile]
[1]
  EC50: 6 µM

## CC1(C)C(=O)N(c2ccc(C#N)c(C(F)(F)F)c2)C(=S)N1Cc1ccc(N2CCNC2=O)nc1 [Example 25, 4-(4,4-Dimethyl-5-oxo-3-{[6-(2-oxoimidazolidin-1-yl)pyridin-3-yl]methyl}-2-thioxoimidazolidin-1-yl)-2-(trifluoromethyl)benzonitrile]
[2]
  IC50: 0.246 µM
[1]
  EC50: > 10 µM

## CC1(C)C(=O)N(c2ccc(C#N)c(C(F)(F)F)c2)C(=S)N1Cc1ccc(N=[S@](C)(=O)c2ccccc2)nc1 [Example 26, (R)-4-{4,4-Dimethyl-3-[(6-{[methyl(oxido)phenyl-λ^6-sulfanylidene]amino}pyridin-3-yl)methyl]-5-oxo-2-thioxoimidazolidin-1-yl}-2-(trifluoromethyl)benzonitrile]
[2]
  IC50: 0.211 µM
[1]
  EC50: > 10 µM

## Cc1ccnn1-c1ccc(CN2C(=S)N(c3ccc(C#N)c(C(F)(F)F)c3)C(=O)C2(C)C)cn1 [Example 27, 4-(4,4-Dimethyl-3-{[6-(5-methyl-1H-pyrazol-1-yl)pyridin-3-yl]methyl}-5-oxo-2-thioxoimidazolidin-1-yl)-2-(trifluoromethyl)benzonitrile]
[1]
  EC50: > 10 µM

## CC1(C)C(=O)N(c2ccc(C#N)c(C(F)(F)F)c2)C(=S)N1Cc1ccc(OCC(F)(F)CO)nc1 [Example 28, 4-(3-{[6-(2,2-Difluoro-3-hydroxypropoxy)pyridin-3-yl]methyl}-4,4-dimethyl-5-oxo-2-thioxoimidazolidin-1-yl)-2-(trifluoromethyl)benzonitrile]
[1]
  EC50: > 10 µM

## CC1(C)C(=O)N(c2ccc(C#N)c(C(F)(F)F)c2)C(=S)N1Cc1ccc(-n2ccnn2)nc1 [Example 29, 4-(4,4-Dimethyl-5-oxo-2-thioxo-3-{[6-(1H-1,2,3-triazol-1-yl)pyridin-3-yl]methyl}imidazolidin-1-yl)-2-(trifluoromethyl)benzonitrile]
[1]
  EC50: > 10 µM

## CC1(C)C(=O)N(c2ccc(C#N)c(C(F)(F)F)c2)C(=S)N1Cc1ccc(-n2nccn2)nc1 [Example 30, 4-(4,4-Dimethyl-5-oxo-2-thioxo-3-{[6-(2H-1,2,3-triazol-2-yl)pyridin-3-yl]methyl}imidazolidin-1-yl)-2-(trifluoromethyl)benzonitrile]
[1]
  EC50: > 10 µM

## CC1(C)C(=O)N(c2ccc(C#N)c(C(F)(F)F)c2)C(=S)N1Cc1ccc(-n2cnnn2)nc1 [Example 31, 4-(4,4-Dimethyl-5-oxo-3-{[6-(1H-tetrazol-1-yl)pyridin-3-yl]methyl}-2-thioxoimidazolidin-1-yl)-2-(trifluoromethyl)benzonitrile]
[2]
  IC50: ≥ 1 µM
[1]
  EC50: > 10 µM

## CC1(C)C(=O)N(c2ccc(C#N)c(C(F)(F)F)c2)C(=S)N1Cc1ccc(-n2cnc(Cl)c2Cl)nc1 [Example 32, 4-(3-{[6-(4,5-Dichloro-1H-imidazol-1-yl)pyridin-3-yl]methyl}-4,4-dimethyl-5-oxo-2-thioxoimidazolidin-1-yl)-2-(trifluoromethyl)benzonitrile]
[1]
  EC50: > 10 µM

## CC1(C)C(=O)N(c2ccc(C#N)c(C(F)(F)F)c2)C(=S)N1Cc1ccc(-n2cnc(C(F)(F)F)n2)nc1 [Example 33, 4-[4,4-Dimethyl-5-oxo-2-thioxo-3-({6-[3-(trifluoromethyl)-1H-1,2,4-triazol-1-yl]pyridin-3-yl}methyl)imidazolidin-1-yl]-2-(trifluoromethyl)benzonitrile]
[1]
  EC50: > 10 µM

## CC1(C)C(=O)N(c2ccc(C#N)c(C(F)(F)F)c2)C(=S)N1Cc1ccc(-n2cnc(CO)c2)nc1 [Example 34, 4-[3-({6-[4-(Hydroxymethyl)-1H-imidazol-1-yl]pyridin-3-yl}methyl)-4,4-dimethyl-5-oxo-2-thioxoimidazolidin-1-yl]-2-(trifluoromethyl)benzonitrile]
[3]
  IC50: 0.331 µM
[2]
  IC50: 0.259 µM
[1]
  EC50: > 10 µM

## CC1(C)C(=O)N(c2ccc(C#N)c(C(F)(F)F)c2)C(=S)N1Cc1ccc(OCCN2CCNC2=O)nc1 [Example 35, 4-[4,4-Dimethyl-5-oxo-3-({6-[2-(2-oxoimidazolidin-1-yl)ethoxy]pyridin-3-yl}methyl)-2-thioxoimidazolidin-1-yl]-2-(trifluoromethyl)benzonitrile]
[2]
  IC50: 0.0446 µM
[1]
  EC50: > 10 µM

## CC1(C)C(=O)N(c2ccc(C#N)c(C(F)(F)F)c2)C(=S)N1Cc1ccc(N2CCS(=O)(=NC#N)CC2)nc1 [Example 36, {4-[5-({3-[4-Cyano-3-(trifluoromethyl)phenyl]-5,5-dimethyl-4-oxo-2-thioxoimidazolidin-1-yl}methyl)pyridin-2-yl]-1-oxido-1λ^6,4-thiomorpholin-1-ylidene}cyanamide]
[3]
  IC50: 0.329 µM
[2]
  IC50: ≥ 1 µM
[1]
  EC50: > 10 µM

## Cc1nc(OCC(C)(C)O)ccc1CN1C(=S)N(c2ccc(C#N)c(C(F)(F)F)c2)C(=O)C1(C)C [Example 37, 4-(3-{[6-(2-Hydroxy-2-methylpropoxy)-2-methylpyridin-3-yl]methyl}-4,4-dimethyl-5-oxo-2-thioxoimidazolidin-1-yl)-2-(trifluoromethyl)benzonitrile]
[3]
  IC50: 0.323 µM
[2]
  IC50: 0.241 µM
[1]
  EC50: > 10 µM

## Cc1nnnn1-c1ccc(CN2C(=S)N(c3ccc(C#N)c(C(F)(F)F)c3)C(=O)C2(C)C)cn1 [Example 38, 4-(4,4-Dimethyl-3-{[6-(5-methyl-1H-tetrazol-1-yl)pyridin-3-yl]methyl}-5-oxo-2-thioxoimidazolidin-1-yl)-2-(trifluoromethyl)benzonitrile]
[2]
  IC50: 0.366 µM
[1]
  EC50: > 10 µM
